Experimental data taken from patent US4690933A, “Pyridylvinyl-1H tetrazole having antihistamine activity” (priority 1984, dated 1987).
Like-named read-outs stand apart in the source and are kept apart here.

Assays:
[1] = biological target: T1, histamine; longitudinal muscle from the intact ileum of guinea-pigs (Cavia porcellus, UniProt P31389); assay: In vitro antihistaminic activity: histamine concentration-response curves, isolated guinea-pig ileum longitudinal muscle (Schild plot); format: cell-based; conditions: negative log of the concentration of antagonist which shifts the control histamine concentration-response curve 2X to the right, one hour incubation with test compound, 60 min
T1 construct: The longitudinal muscle was isolated from the intact ileum of guinea-pigs; from tissue; host or cells: longitudinal muscle of the ileum of guinea-pigs (Harley, male 250-400 g)
T1 sequence (P31389 whole entry): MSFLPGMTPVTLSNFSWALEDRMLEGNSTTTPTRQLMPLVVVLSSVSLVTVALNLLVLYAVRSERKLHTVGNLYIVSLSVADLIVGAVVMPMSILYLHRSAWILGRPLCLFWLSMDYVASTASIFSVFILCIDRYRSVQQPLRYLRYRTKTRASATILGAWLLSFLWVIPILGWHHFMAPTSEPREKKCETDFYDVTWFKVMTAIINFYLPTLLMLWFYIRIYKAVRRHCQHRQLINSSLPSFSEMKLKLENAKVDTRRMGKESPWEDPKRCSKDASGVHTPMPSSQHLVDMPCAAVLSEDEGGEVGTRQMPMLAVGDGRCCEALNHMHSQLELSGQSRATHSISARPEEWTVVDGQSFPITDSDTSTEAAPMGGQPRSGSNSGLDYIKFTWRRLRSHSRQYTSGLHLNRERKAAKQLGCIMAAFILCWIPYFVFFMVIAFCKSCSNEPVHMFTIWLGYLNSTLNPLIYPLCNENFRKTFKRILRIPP
Experimental: A.Invitro antihistaminic activity: The longitudinal muscle was isolated from the intact ileum of guinea-pigs (Harley, male 250-400 g) and placed in an organ bath under 300 mg tension. After one hour of equilibration, cumulative concentration-response curves (Van Rossum, J. M., Arch. Int. Pharmacodyn. Ther. 143 299-330, 1963) to histamine wee obtained. Following washing, the tissues were incubated for one hour with the test compound and then a second histamine concentration-response curve was run. Shifts to the right of the agonist concentration-response curve produced by the antagonists were used to construct Schild plots (Arunlakshana, O. and Schild, H. O., Br. J. Pharmacol: 14, 48-58, 1959). Regression of Log (dr-1) on Log/B/, where dr is an equiactive response in the presence and absence of antagonist and /B/ is the molar concentration of antagonist, allowed an estimate of pA2, i.e. the negative log of the concentration of antagonist which shifts the control histamine concentration-response curve 2X to the right.
The antihistaminic activities of compounds of the present invention are detailed in table A below.

[2] = background statement, no test described; cited from earlier work
[3] = cited from earlier work
[4] = cited from earlier work; remark: listed apart in the source

With `O=S(=O)(O)c1cccc(C(CCN2CCCC2)c2ccccc2)c1` (stereo not drawn) [Example 3, 3-(1-phenyl-3-pyrrolidinopropyl)benzenesulphonic acid] as the compound, how does the pA2 [1] read?
The pA2 was 7.3.

Which antihistamine activity [2] does the source give for `O=C(O)c1ccc(/C(=C\CN2CCCC2)c2ccccn2)cc1` [(E)-1-(4-carboxyphenyl)-1-(2-pyridyl)-3-pyrrolidinoprop-1-ene] here?
The antihistamine activity was “little or no antihistamine activity”.

Which pA2 [1] does the source give for `Cc1ccc(/C(=C\CN2CCCC2)c2cccc(/C=C/c3nnn[nH]3)n2)cc1` [Example 1, 5-(E-6-[3-Pyrrolidino-1-(4-tolyl)prop-1E-enyl]-2-pyridylvinyl)-1H-tetrazole] here?
Its pA2 is 8.7.

Which pA2 [1] does the source give for `O=S(=O)(O)c1cccc(/C(=C/CN2CCCC2)c2ccccc2)c1` [Example 2, (E)-3-(1-phenyl-3-pyrrolidinoprop-1-enyl)-benzenesulphonic Acid] here?
Its pA2 is 7.1.

Which sedation or drowsiness ([3]; human, in vivo) does the source give for `Cc1ccc(/C(=C\CN2CCCC2)c2ccccn2)cc1` [triprolidine, (E)-1-(4-methylphenyl)-1-(2-pyridyl)-3-pyrrolidinoprop-1-ene] here?
The sedation or drowsiness was “cause sedation or drowsiness in some patients”.

What about the metabolism in man [4] of the same compound?
Its metabolism in man is “metabolized in man to (E)-1-(4-carboxyphenyl)-1-(2-pyridyl)-3-pyrrolidinoprop-1-ene”.

And the antihistamine activity [2]?
The antihistamine activity was “one of the most potent antihistamines available”.

For `COc1ccc(CN(CCN(C)C)c2ccccn2)cc1` [pyrilamine], which sedation or drowsiness ([3]; human, in vivo) is on record?
The sedation or drowsiness was “cause sedation or drowsiness in some patients”.

For `CC(CN1c2ccccc2Sc2ccccc21)N(C)C` (stereo not drawn) [promethazine], which sedation or drowsiness ([3]; in some patients) is on record?
The sedation or drowsiness was “cause sedation or drowsiness in some patients”.
